One series relates to HBV. Nature of the series: Anti-HBV activity in HepG2.2.15 cells (HBV DNA in culture medium by qPCR). To be noted: Hepatitis B virus, HepG2.2.15, 144 h, HepG2.2.15 cells, 6 days treatment, HBV DNA in culture medium quantified by real-time PCR; read-out: EC50. Format: cell-based. On the procedure: Example 2: Anti-Viral Assay in HepG2.2.15 Cells
(§1) HepG2.2.15 (the HepG2.2.15 cell line can be produced by transfection of the HepG2 cell line as described in Sells, Chen, and Acs 1987 (Proc. Natl. Acad. Sci. USA 84: 1005-1009), and the HepG2 cell line is available from ATCC® under number HIB-8065™)
(§2) HepG2.2.15 cells were plated into 96-well plate in 2% FBS culture medium at the density of 40,000 cells/well and 5,000 cells/well for HBV inhibitory activity and cytotoxicity determination, respectively. After incubation at 37° C., 5% CO2 overnight, cells were treated with medium containing compounds for 6 days with medium and compounds refreshed after 3 days of treatment. Each compound was tested in a 1:3 serial dilutions at 8 different concentrations in triplicate. The highest concentration of the compounds was 10 uM or 1 uM for anti-HBV activity assay and 100 uM for cytotoxicity determination.
The change of HBV DNA level induced by the compounds was assessed by quantitative real-time polymerase chain reaction (qPCR). Briefly, the HBV DNA in the culture medium was extracted using QIAamp 96 DNA Blood Kit according to the manual and then quantified by real-time PCR assay using the primers and probe in the table 2 below.
(§3) 2) DATA Analysis EC50 and CC50 values are calculated by the GRAPTIPAD PRISM software.
In general terms: Quantitative PCR measures a nucleic acid by following its amplification.

A short description of series [1]: Cytotoxicity determination in HepG2.2.15 cells (CCK-8 cell viability). To be noted: human, 6 days treatment, CCK-8 assay, highest concentration 100 uM. Format: cell-based. As to the method:
as §1, §2
Cell viability was determined by CCK-8 assay. After 6 days of compounds treatment, 20 μl CCK-8 reagents were added to each well of cytotoxicity assay plates. Cell plates were incubated at 37° C., 5% CO2 for 2.5 h. The absorbance at 450 nm wavelength and the absorbance at 630 nm wavelength as reference was measured.
as §3
(In general: Tetrazolium dyes change colour on reduction, which living cells bring about.)

Here are results for 24 compounds from US20230083012A1, “DIHYDROPYRIMIDINE DERIVATIVES AND USES THEREOF IN THE TREATMENT OF HBV INFECTION OR OF HBV-INDUCED DISEASES” (priority 2019, published 2023).

Each structure is given as a SMILES string. Some results are limits rather than exact numbers.

By EC50 is commonly meant the concentration that produces a half-maximal response. The term CC50 denotes the concentration that lowers cell viability or growth by half. Read a high CC50 as lower toxicity to the cells. As for `CCOC(=O)C1=C(CN2CC(F)(F)[C@@H]3CN(CC4(CC(=O)O)CC4)C[C@@H]32)NC(c2nccs2)=N[C@H]1c1cccc(F)c1C` (single isomer, unassigned) [Compound 48], in the series with HBV, the EC50 turned out to be 0.105 µM. Also, the CC50 at 6 days in series [1] is more than 100 µM.
Regarding `CCOC(=O)C1=C(CN2CC(F)(F)[C@@H]3C(=O)N(C[C@H](CC)C(=O)O)C[C@@H]32)NC(c2nccs2)=N[C@H]1c1cccc(F)c1C` (single isomer, unassigned) [Compound 182B], the EC50 in the series on HBV worked out at 0.0113 µM. For the same compound, the CC50 at 6 days in series [1] worked out at 33.3 µM.
For the compound `CCOC(=O)C1=C(CN2CC(F)(F)[C@@H]3CN(C[C@@H](CC)C(=O)O)C(=O)C32)NC(c2nccs2)=N[C@H]1c1cccc(F)c1C` (single isomer, unassigned) [Compound 183A], in the series on HBV, the EC50 came to 0.0143 µM. This compound came in with a CC50 at 6 days in series [1] of 40.3 µM.
In the case of `CCOC(=O)C1=C(CN2CC(F)(F)[C@H]3CN([C@H]4C[C@@H](C(=O)O)C4)C[C@H]32)NC(c2nccs2)=N[C@H]1c1cccc(F)c1C` (single isomer, unassigned) [Compound 18B], the EC50 in the series with HBV is 0.0737 µM. This compound also showed a CC50 at 6 days in series [1] of 64.2 µM.
With `CCOC(=O)C1=C(CN2CC(F)(F)[C@@H]3C(=O)N(CC4(C(=O)O)CCCC4)C[C@@H]32)NC(c2nccs2)=N[C@H]1c1cccc(F)c1C` (single isomer, unassigned) [Compound 199], the EC50 in the series on HBV was 0.0118 µM. Further, half-maximal cytotoxicity in series [1] (CC50 at 6 days) was put at 35.9 µM.
Consider `CCOC(=O)C1=C(CN2CC(F)(F)[C@H]3[C@@H]2CCN3CC(C)(C)C(=O)NS(C)(=O)=O)NC(c2nccs2)=N[C@H]1c1cccc(F)c1C` (single isomer, unassigned) [Compound 109], for which the EC50 in the series with HBV was less than 0.001 µM. Also, the CC50 at 6 days in series [1] worked out at 7.3 µM.
Regarding `CCOC(=O)C1=C(CN2CC(F)(F)[C@H]3[C@@H]2CCN3CC23CC(C(=O)O)(C2)C3)NC(c2nccs2)=N[C@H]1c1cccc(F)c1C` (single isomer, unassigned) [Compound 155], the EC50 in the series on HBV amounted to 0.0007 µM. Besides, the midpoint of cytotoxicity in series [1], the CC50 at 6 days, lay at 10 µM.
On the same counts, the results for `CCOC(=O)C1=C(CN2CC(F)(F)[C@@H]3CN(CCC(C)(C)C(=O)O)C[C@@H]32)NC(c2nccs2)=N[C@H]1c1cccc(F)c1C` (single isomer, unassigned) [Compound 17B] are 0.123 µM and 72.8 µM.
Regarding `CCOC(=O)C1=C(CN2CC(F)(F)[C@H]3[C@@H]2CN(C(C)=O)N3CCC(C)(C)C(=O)O)NC(c2nccs2)=N[C@H]1c1ccc(F)c(F)c1F` (single isomer, unassigned) [Compound 83B, 4-((cis)-2-acetyl-4-((5-(ethoxycarbonyl)-2-(thiazol-2-yl)-6-(2,3,4-trifluorophenyl)-3,6-dihydropyrimidin-4-yl)methyl)-6,6-difluorohexahydropyrrolo[3,2-c]pyrazol-1(2H)-yl)-2,2-dimethylbutanoic acid], the EC50 with HBV came to 0.035 µM. This compound also returned a CC50 at 6 days in series [1] of 39 µM.
In the case of `CCOC(=O)C1=C(CN2CC(F)(F)[C@H]3[C@@H]2CCN3[C@H](C)C(=O)O)NC(c2nccs2)=N[C@H]1c1cccc(F)c1C` (single isomer, unassigned) [Compound 26E], the EC50 with HBV was found to be 0.0052 µM. For the same compound, the CC50 at 6 days in series [1] came out at 28.1 µM.
Take `COC(=O)C1=C(CN2CC(F)(F)[C@@H]3[C@H]2CON3CCC(C)(C)C(=O)O)NC(c2nccs2)=N[C@H]1c1ccc(F)c(F)c1Cl` (single isomer, unassigned) [Compound 162, (cis)-4-(4-((6-(2-chloro-3,4-difluorophenyl)-5-(methoxycarbonyl)-2-(thiazol-2-yl)-3,6-dihydropyrimidin-4-yl)methyl)-6,6-difluorohexahydro-1H-pyrrolo[3,2-c]isoxazol-1-yl)-2,2-dimethylbutanoic acid]: in the series on HBV, the EC50 was 0.005 µM. This compound showed a CC50 at 6 days in series [1] of 50 µM.
Consider `CCOC(=O)C1=C(CN2CC(F)(F)[C@@H]3CN(C(C)(C)C(=O)O)C[C@@H]32)NC(c2nccs2)=N[C@H]1c1cccc(F)c1C` (single isomer, unassigned) [Compound 195], for which, in the series with HBV, the EC50 came to 0.0403 µM. The CC50 at 6 days in series [1] was determined as 96.6 µM.
In the same order, the values of `CCOC(=O)C1=C(CN2CC(F)(F)[C@H]3[C@@H]2CCN3CCC(C)C(=O)O)NC(c2nccs2)=N[C@H]1c1cccc(F)c1C` (single isomer, unassigned) [Compound 147] are less than 0.0005 µM and 34.6 µM.
For the compound `CCOC(=O)C1=C(CN2CC(F)(F)[C@H]3[C@@H]2CCN3C2CC(C(=O)O)C2)NC(c2nccs2)=N[C@H]1c1cccc(F)c1C` (relative stereo) [Compound 39A, 3-(4-(((S)-5-(ethoxycarbonyl)-6-(3-fluoro-2-methylphenyl)-2-(thiazol-2-yl)-3,6-dihydropyrimidin-4-yl)methyl)-6,6-difluorohexahydropyrrolo[3,2-b]pyrrol-1(2H)-yl)cyclobutane-1-carboxylic acid], in the series on HBV, the EC50 came to 0.0024 µM. The compound also yielded a CC50 at 6 days in series [1] of 35 µM.
As to `CCOC(=O)C1=C(CN2CC(F)(F)[C@@H]3[C@H]2CN(C=O)N3CCC(C)(C)C(=O)O)NC(c2nccs2)=N[C@H]1c1cccc(F)c1C` (single isomer, unassigned) [Compound 86], the EC50 in the series on HBV stood at 0.13 µM. Further, the CC50 at 6 days in series [1] was more than 50 µM.
Take `CCOC(=O)C1=C(CN2CC(F)(F)[C@H]3[C@@H]2CCN3CCOC(C)C(=O)O)NC(c2nccs2)=N[C@H]1c1cccc(F)c1C` (single isomer, unassigned) [Compound 148]: the EC50 with HBV stood at 0.0073 µM. In series [1], this compound showed a CC50 at 6 days of 34.1 µM.
For the compound `CCOC(=O)C1=C(CN2CC(F)(F)[C@H]3[C@@H]2CCN3CCC(C)(C)C(=O)O)NC(c2nccs2)=N[C@@H]1c1ccc(F)c(F)c1C` (single isomer, unassigned) [Compound 139, 4-((cis)-4-((6-(3,4-difluoro-2-methylphenyl)-5-(ethoxycarbonyl)-2-(thiazol-2-yl)-3,6-dihydropyrimidin-4-yl)methyl)-6,6-difluorohexahydropyrrolo[3,2-b]pyrrol-1(2H)-yl)-2,2-dimethylbutanoic acid], the EC50 with HBV was 0.0006 µM. The CC50 at 6 days in series [1] was 16.1 µM.
Regarding `CCOC(=O)C1=C(CN2CC(F)(F)[C@H]3[C@@H]2CCN3[C@H]2CC[C@@H](C(=O)O)CC2)NC(c2nccs2)=N[C@H]1c1cccc(F)c1C` (single isomer, unassigned) [Compound 104A], the EC50 in the series on HBV was 0.0104 µM. The compound further registered a CC50 at 6 days in series [1] of 16.1 µM.
With `CCOC(=O)C1=C(CN2CC(F)(F)[C@H]3[C@@H]2CCN3C(C)=O)NC(c2nccs2)=N[C@H]1c1cccc(F)c1C` (single isomer, unassigned) [Compound 61], in the series on HBV, the EC50 came out at 0.0373 µM. In addition, the half-maximal cytotoxic concentration (CC50) at 6 days in series [1] was found to be 21.5 µM.
Take `CCOC(=O)C1=C(CN2CC(F)(F)[C@@H]3C(=O)N(c4ccn(CCC(C)(C)C(=O)O)n4)C[C@@H]32)NC(c2nccs2)=N[C@H]1c1cccc(F)c1C` (single isomer, unassigned) [Compound 187]: the EC50 with HBV was found to be 0.0817 µM. The midpoint of cytotoxicity in series [1], the CC50 at 6 days, lay at 33.6 µM.
Consider `CCOC(=O)C1=C(CN2CC(F)(F)[C@H]3[C@@H]2CCN3c2nc(C(=O)O)cs2)NC(c2nccs2)=N[C@H]1c1cccc(F)c1C` (single isomer, unassigned) [Compound 124], for which, in the series on HBV, the EC50 was 0.0242 µM. It took 7.7 µM to reach half-maximal cytotoxicity in series [1] (CC50 at 6 days).
For the compound `COC(=O)C1=C(CN2CC(F)(F)[C@H]3[C@@H]2CCN3CCC(C)(C)C(=O)O)NC(c2nccs2)=N[C@H]1c1cccc(F)c1C` (single isomer, unassigned) [Compound 136, 4-((cis)-6,6-difluoro-4-((6-(3-fluoro-2-methylphenyl)-5-(methoxycarbonyl)-2-(thiazol-2-yl)-3,6-dihydropyrimidin-4-yl)methyl)hexahydropyrrolo[3,2-b]pyrrol-1(2H)-yl)-2,2-dimethylbutanoic acid], in the series on HBV, the EC50 worked out at 0.0021 µM. Moreover, half-maximal cytotoxicity in series [1] (CC50 at 6 days) was put at 34.4 µM.
Turning to `CCOC(=O)C1=C(CN2CC(F)(F)[C@@H]3[C@H]2CON3CCC(C)(C)C(=O)O)NC(c2nccs2)=N[C@H]1c1cccc(F)c1F` (single isomer, unassigned) [Compound 173, 4-((cis)-4-((6-(2,3-difluorophenyl)-5-(ethoxycarbonyl)-2-(thiazol-2-yl)-3,6-dihydropyrimidin-4-yl)methyl)-6,6-difluorohexahydro-1H-pyrrolo[3,2-c]isoxazol-1-yl)-2,2-dimethylbutanoic acid], the EC50 in the series on HBV worked out at 0.016 µM. The compound also displayed a CC50 at 6 days in series [1] of more than 100 µM.
Consider `CCOC(=O)C1=C(CN2CC(F)(F)[C@@H]3[C@H]2CON3CCC(C)(C)C(=O)O)NC(c2nccs2)=NC1c1cccc(F)c1Cl` (single isomer, unassigned) [Compound 171, (cis)-4-(4-((6-(2-chloro-3-fluorophenyl)-5-(ethoxycarbonyl)-2-(thiazol-2-yl)-3,6-dihydropyrimidin-4-yl)methyl)-6,6-difluorohexahydro-1H-pyrrolo[3,2-c]isoxazol-1-yl)-2,2-dimethylbutanoic acid], for which the EC50 in the series on HBV came out at 0.004 µM. Further, the midpoint of cytotoxicity in series [1], the CC50 at 6 days, lay at 32.3 µM.
